Test results from paper PMC10002220, “In Vivo Reversal of P-Glycoprotein-Mediated Drug Resistance in a Breast Cancer Xenograft and in Leukemia Models Using a Novel, Potent, and Nontoxic Epicatechin EC31” (International Journal of Molecular Sciences, 2023).
Like-named read-outs stand apart in the source and are kept apart here.

Tests used:
[1] = tested on: LCC6MDR xenograft; assay: In vivo PTX and EC31 accumulation in LCC6MDR tumor
Description: (§1) (A) In vivo toxicity study of EC31 alone and of its combination with PTX was conducted. BALB/c mice were randomized into five groups with five mice in each group. Body weight of BALB/c mice during treatments was measured every two days. The treatment groups included (1) solvent control (5% NMP + 5% Cremophor EL + 90% PBS to dissolve EC31 and 5% Ethanol + 5% Cremophor EL + 90% PBS to dissolve PTX), (2) PTX (12 mg/kg i.v.), (3) EC31 (30 mg/kg i.p.), (4) EC31 (30 mg/kg i.p.) + PTX (12 mg/kg i.v.), or (5) EC31 (60 mg/kg i.p.) + PTX (12 mg/kg i.v.). The administration was performed every other day 12 times (q2d x 12). The loss of body weight or appetite and treatment-related mortality were monitored and defined as toxicity. (B) BALB/c nude mice were subcutaneously xenografted with LCC6MDR. When the tumor reached 150–300 mm^3, the mice were randomized and administered once with (1) EC31 alone, (2) PTX alone, or (3) EC31 + PTX. […] The tumors were taken out, and their weights were measured. Intratumor concentration of EC31 or PTX was measured using UPLC-MS/MS, and the actual concentration of PTX or EC31 was normalized to the tumor weight. […] Tumor volume and body weight were monitored throughout the treatment period. […] The tumor volume, tumor weight, and doubling time were measured. The number of animal deaths was recorded during the treatment period. […]

[2] = In vivo toxicity study of EC31 alone and combined with PTX; conditions: q2d x 12
Description: as §1

[3] = tested on: MRP1; conditions: Cpds at 1 μM; IC50 of DOX without/with modulator; cited from earlier work
[4] = tested on: K562/P-gp cells; assay: EC31 efflux in K562/P-gp cells; type: cell-based, human; conditions: after 150 min of efflux, preincubated with 1 µM
Description: (§2) N = 3 independent experiments.
(§3) After incubation, the medium was removed, and cells were washed with cold PBS twice. To the cell pellet, 300 μL of acetonitrile was added. The cells were sonicated for 10 min at 50 Hz using Intertek-CD-3800(A) sonicator. The lysed cells were then spun at 14,000 rpm for 10 min at room temperature. The supernatant containing EC31 was saved and was filtered with 0.45 µm syringe filter before UPLC-MS/MS analysis. For the efflux assay, the cells were preincubated with 1 μM EC31 at 37 °C for 2.5 h. The cells were then washed with PBS, were resuspended in drug-free medium, and were further incubated at 37 °C. The cells were collected at 0, 30, 60, and 150 min, respectively. The intracellular EC31 at different time points was analyzed as described in the Section 4.9.

[5] = biological target: T1, P-gp (Homo sapiens, UniProt P08183); assay: EC50 for reversing drug resistance in K562/P-gp cells (cell proliferation assay); conditions: EC50 for Reversing MDR
[6] = tested on: K562 cells; assay: EC31 efflux in K562 cells; type: cell-based, human; conditions: after 150 min of efflux, preincubated with 1 µM
Description: as §2, §3

[7] = tested on: P388ADR leukemia; assay: In vivo efficacy in reversing DOX resistance in murine leukemia P388ADR model; parameters: species or system B6D2F1 mice
Description: Irradiated BDF1 mice were i.p. inoculated with P388ADR cells, which caused mouse leukemia. Irradiated NOD/SCID mice were i.v. inoculated with K562/P-gp cells, which caused human leukemia. The mice were randomized and treated with (1) control treatment (no treatment), (2) DOX alone, and (3) EC31 + DOX. Treatments were given as indicated by the arrows. The number of mice deaths in each treatment group was recorded every day. (A) The percent survival of mice infected with P388ADR. (B) The percent survival of mice infected with K562/P-gp. The mice median survival days and the increased lifespan (ILS) were analyzed with Log-rank (Mantel–COX) test in Prism 5.0. Student’s paired t test was conducted as indicated. ** represents p < 0.01, and *** represents p < 0.001. N.S. = not significant.
About 1 × 10^6 cells of P388ADR were i.p. inoculated in male B6D2F1 mice aged 5–7 weeks old. There were 3 groups: (1) control group with no treatment, (2) DOX (3 mg/kg i.p.) alone, and (3) cotreatment with EC31 (60 mg/kg i.p.) being injected 1 h prior to DOX (3 mg/kg i.p.) administration. In group 2, DOX was i.p. injected on days 2, 6, 10, 14, and 18 only. In group 3, EC31 was i.p. injected on days 1, 2, 5, 6, 9, 10, 13, 14, 17, and 18, and DOX was i.p. injected on days 2, 6, 10, 14, and 18. Before each treatment, 1.5 mg/mL of DOX was freshly prepared using PBS. Mice survival and body weight were monitored during the study period.

[8] = biological target: T1, P-gp; assay: Vanadate-sensitive P-gp ATPase activity assay (P-gp-Glo); conditions: 70 µM
[9] = tested on: P-gp; assay: EC50 for reversing drug resistance in P388ADR cells (cell proliferation assay)

T1 sequence (P08183 whole entry): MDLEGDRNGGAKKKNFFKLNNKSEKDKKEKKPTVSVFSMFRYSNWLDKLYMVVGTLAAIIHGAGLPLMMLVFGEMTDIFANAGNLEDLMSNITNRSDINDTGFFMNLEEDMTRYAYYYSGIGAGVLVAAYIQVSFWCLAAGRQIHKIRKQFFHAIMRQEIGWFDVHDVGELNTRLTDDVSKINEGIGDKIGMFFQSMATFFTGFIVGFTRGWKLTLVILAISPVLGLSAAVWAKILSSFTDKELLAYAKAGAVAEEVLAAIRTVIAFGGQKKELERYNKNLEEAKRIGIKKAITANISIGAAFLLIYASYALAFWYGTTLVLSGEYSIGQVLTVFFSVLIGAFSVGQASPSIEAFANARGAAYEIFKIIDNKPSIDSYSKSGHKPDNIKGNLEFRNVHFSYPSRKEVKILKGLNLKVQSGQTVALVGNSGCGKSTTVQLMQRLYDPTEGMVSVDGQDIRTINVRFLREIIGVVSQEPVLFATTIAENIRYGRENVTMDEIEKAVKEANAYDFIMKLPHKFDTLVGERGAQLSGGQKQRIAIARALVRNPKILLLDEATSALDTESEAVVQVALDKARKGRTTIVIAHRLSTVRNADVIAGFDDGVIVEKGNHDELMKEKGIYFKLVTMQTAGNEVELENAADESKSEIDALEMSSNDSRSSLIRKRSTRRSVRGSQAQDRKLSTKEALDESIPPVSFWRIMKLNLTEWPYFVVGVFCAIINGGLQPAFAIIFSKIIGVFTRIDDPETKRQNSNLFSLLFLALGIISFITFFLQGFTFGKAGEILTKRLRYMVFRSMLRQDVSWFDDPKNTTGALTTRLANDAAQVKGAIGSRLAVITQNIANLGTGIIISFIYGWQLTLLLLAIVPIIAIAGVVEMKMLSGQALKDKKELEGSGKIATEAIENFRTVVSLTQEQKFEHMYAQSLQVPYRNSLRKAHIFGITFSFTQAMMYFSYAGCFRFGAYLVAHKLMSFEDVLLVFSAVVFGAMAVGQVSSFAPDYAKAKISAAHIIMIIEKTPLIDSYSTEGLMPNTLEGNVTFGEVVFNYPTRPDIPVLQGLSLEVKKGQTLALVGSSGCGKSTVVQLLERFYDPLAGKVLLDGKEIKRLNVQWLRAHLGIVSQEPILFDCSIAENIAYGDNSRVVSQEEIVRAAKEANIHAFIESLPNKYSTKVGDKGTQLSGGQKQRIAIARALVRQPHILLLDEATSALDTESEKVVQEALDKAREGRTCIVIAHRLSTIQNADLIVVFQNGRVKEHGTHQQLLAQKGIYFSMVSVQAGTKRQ

SMILES: COc1cc(OC)c2c(c1)O[C@H](c1ccc(OC)c(OC)c1)[C@H](OC(=O)c1ccc(F)c(NC(=O)c3cc(OC)c(OC)c(OC)c3)c1)C2 [EC31]
- increase of intratumor PTX level compared to PTX alone ([1]; EC31 30 mg/kg i.p. + PTX 12 mg/kg i.v., at 180 min): 6 fold
- time intratumor EC31 is maintained above its in vitro EC50 (94 nM) ([1]; EC31 alone 30 mg/kg i.p., LCC6MDR xenograft): 420 min
- mortality or toxicity symptoms ([2]; EC31 30 mg/kg i.p. alone): did not cause any mortality or toxicity symptoms
- body weight loss ([2]; EC31 30 or 60 mg/kg i.p. + PTX 12 mg/kg i.v.): ≤ 15%
- 2008MRP1 MRP1-modulating activity RF (relative fold) [3]: 1.3
- EC31 remaining in cells [4]: ~16%
- EC50 ([5]; DOX Resistance, K562/P-gp, concentration that reduces IC50 of DOX by half): 0.093 ± 0.033 µM
- EC50 ([5]; VCR Resistance, K562, concentration that reduces IC50 of VCR by half, column head prints K562): 0.037 ± 0.01 µM
- EC31 remaining in cells [6]: about 23%
- median survival ([7]; EC31 60 mg/kg i.p. + DOX 3 mg/kg i.p.): 21.5 days
- ILS% (increase in lifespan) ([7]; EC31 60 mg/kg i.p. + DOX 3 mg/kg i.p. compared to DOX alone): 30.3%
- P-gp ATPase activity, fold change relative to basal [8]: ≤ 2.1 fold
- EC50 ([9]; read-out: EC50 for Reversing MDR, DOX Resistance, P388ADR, concentration that reduces IC50 of DOX by half): 0.186 ± 0.031 µM
- EC50 ([9]; read-out: EC50 for Reversing MDR, PTX Resistance, P388ADR, concentration that reduces IC50 of PTX by half): 0.249 ± 0.018 µM
